Consider 18 molecules from patent US20250136558A1, “PYRAZINE COMPOUNDS AS IRREVERSIBLE INHIBITORS OF FLT3” (BIOMEA FUSION, INC., priority 2021, published 2025).

What all share (type): cell-based
The test system of one assay is MOLM-13. As to the kind of experiment: Proliferation inhibition (CellTiter-Glo) in MOLM-13 cells. Conditions: Homo sapiens, 96 h, MOLM-13 AML cells, heterozygous FLT3-ITD, IC50 (4 days). An excerpt:
(§1) The Proliferation Inhibitory Effect was Investigated in Human AML Cell Lines MOLM-13 (AddexBio: C0003003) [REF: Pubmed: 9305600] and MV-4-11 (ATCC: CRL-9591) [REF PMID: 3496132], and CML cell line […] (ATCC: CRL-3343) [REF PMID: 163658]. Molm-13 is heterozygous for FLT3-ITD mutation, while MV4-11 is homozygous for FLT3-ITD [PMID: 12529668]. […] Cells were maintained in RPMI-1640 medium (ThermoFisher catalog no. 61870036) supplemented with 10% of Heat Inactivated FBS (ThermoFisher catalog no.A31605) and 1% Pen-Strep (Thermofisher catalog no. 10378016) and cultured at 37° C. in a humidified incubator with 5% CO2. Cell lines were […], and the cells were maintained in a range 70%-80% confluency.
(§2) ATP is present in all metabolically active cells and is considered as a marker for cell viability and proliferation. Metabolic cell activity was determined using the CellTiter-Glo kit (Promega catalog no. G7572), an ATP monitoring system based on the production of luminescence by the reaction of ATP with added UltraGlo® recombinant luciferase (Kawano et al., 2016, PLOS One, 8; 11(7):e0158888), according to the supplier's experimental recommendations. The assay was based on a 96 well plate format.
(§3) Test compounds were dissolved at 10 mM in DMSO (Sigma catalog no. D8418; purity 299.9%) and stored at −20° C. Eight concentrations of test compound were assessed in duplicate in an individual test occasion in parallel in the selected cell lines. Gilteratinib and FF-10101 were used as reference compounds and tested in duplicate at eight concentrations. 100% of proliferation is represented by the untreated cells (0.2% DMSO).
(§4) On the day of the experiment (TO), cells were quantified with the cell viability analyser NucleoCounter (Chemometec NC-200) and diluted with fresh medium to obtain the cell density of about 10,000 cells per 200 μL medium. 200 μL of cell suspension were added into wells in the 96 well plate.
(§5) After 2 hours from seeding cells, compounds were added using a D300e compound dispenser (Life Sciences Tecan D300) at desired concentrations with shaking between each compound dispensed. Cell plates containing 200 μL/well suspension were incubated at 37° C. in a humidified incubator with […].
(§6) […] Contents were mixed for 5 min on an orbital shaker to induce cell lysis, and then incubated at room temperature for an additional 10 min in the dark to stabilize the luminescent signal. Luminescence was read by using a GloMax GM300 plate reader (Promega) using the luminescence for 96 well plate standard protocol.
(§7) Results were analysed by GraphPad (Prism) and IC50 values were calculated by non-linear regression using four parameter-logistic equation.

For another assay, the system named is MV-4-11. In words: Proliferation inhibition (CellTiter-Glo) in MV-4-11 cells. Conditions: Homo sapiens, MV4-11, 96 h, MV-4-11 AML cells, homozygous FLT3-ITD, IC50 (4 days).
Source text: as §1, §2, §3, §4, §5, §6, §7
(In general: Cellular ATP, detected with luciferase, serves as a proxy for viable cell number.)

In the next assay the test system is K-562. In words: Proliferation inhibition (CellTiter-Glo) in K-562 cells. As to conditions: Homo sapiens, K562, 96 h, K-562 CML cells, no FLT3 mutations, IC50 (4 days).
Source text: as §1, §2, §3, §4, §5, §6, §7

Turning to `CCc1nc(C(N)=O)c(Nc2cc(C#CCNC(=O)[C@H](C)N(C)C(=O)/C=C/CN(C)C)cc(OC)c2)nc1NC1CCOCC1` [Compound 103, 3-[3-[3-[[(2S)-2-[[(E)-4-(dimethylamino)but-2-enoyl]-methyl-amino]propanoyl]amino]prop-1-ynyl]-5-methoxy-anilino]-6-ethyl-5-(tetrahydropyran-4-ylamino)pyrazine-2-carboxamide], the IC50 is 1 to 10 nM in the assay on MOLM-13, less than 1 nM with MV-4-11 and more than 500 nM with K-562.

As to `CCc1nc(C(N)=O)c(Nc2cccc(OCCCNC(=O)[C@H](C)N(C)C(=O)/C=C/CN(C)C)c2)nc1NC(C)C` [Compound 124, (S,E)-3-((3-(3-(2-(4-(dimethylamino)-N-methylbut-2-enamido)propanamido)propoxy)phenyl)amino)-6-ethyl-5-(isopropylamino)pyrazine-2-carboxamide], the IC50 was less than 1 nM in the assay with MOLM-13, 1 to 10 nM with MV-4-11 and more than 500 nM in the assay with K-562.

In the case of `CCc1nc(C(N)=O)c(Nc2cc(CCNC(=O)[C@H](C)N(C)C(=O)C#CCN(C)C)cc(OC)c2)nc1NC1CCOCC1` [Compound 136, (S)-3-((3-(2-(2-(4-(dimethylamino)-N-methylbut-2-ynamido)propanamido)ethyl)-5-methoxyphenyl)amino)-6-ethyl-5-((tetrahydro-2H-pyran-4-yl)amino)pyrazine-2-carboxamide], the IC50 was 1 to 10 nM with MOLM-13, less than 1 nM with MV-4-11 and more than 500 nM in the assay with K-562.

As to `CCc1nc(C(N)=O)c(Nc2cccc(C#CCNC(=O)[C@H](C)N(C)C(=O)/C=C/CN(C)C)c2)nc1NC1CCOCC1` [Compound 18, (S,E)-3-((3-(3-(2-(4-(Dimethylamino)-N-methylbut-2-enamido)propanamido)prop-1-yn-1-yl)phenyl)amino)-6-ethyl-5-((tetrahydro-2H-pyran-4-yl)amino)pyrazine-2-carboxamide], the IC50 with MOLM-13 is 1 to 10 nM; in the assay with MV-4-11, less than 1 nM; in the assay with K-562, more than 500 nM.

As for `C#CC(=O)NCC#Cc1cccc(Nc2nc(NC3CCOCC3)c(CC)nc2C(N)=O)c1` [Compound 13, 6-Ethyl-3-((3-(3-propiolamidoprop-1-yn-1-yl)phenyl)amino)-5-((tetrahydro-2H-pyran-4-yl)amino)pyrazine-2-carboxamide], the IC50 in the assay on MOLM-13 is 10 to 100 nM; with MV-4-11, 10 to 100 nM; in the assay on K-562, 100 to 500 nM.

Consider `C=CC(=O)N(C)[C@@H](C)C(=O)NCC#Cc1cccc(Nc2nc(NC3CCOCC3)c(CC)nc2C(N)=O)c1` [Compound 17, (S)-6-Ethyl-3-((3-(3-(2-(N-methylacrylamido)propanamido)prop-1-yn-1-yl)phenyl)amino)-5-((tetrahydro-2H-pyran-4-yl)amino)pyrazine-2-carboxamide], for which the IC50 was 1 to 10 nM in the assay on MOLM-13, less than 1 nM in the assay with MV-4-11 and more than 500 nM in the assay on K-562.

For `C=CC(=O)N(C)CCCC(=O)NCCc1cc(Nc2nc(NC3CCOCC3)c(CC)nc2C(N)=O)cc(OC)c1` [Compound 30, 6-Ethyl-3-((3-methoxy-5-(2-(4-(N-methylacrylamido)butanamido)ethyl)phenyl)amino)-5-((tetrahydro-2H-pyran-4-yl)amino)pyrazine-2-carboxamide], the results for the IC50 in the assay on MOLM-13, with MV-4-11 and with K-562 were 100 to 500 nM, 1 to 10 nM and more than 500 nM, respectively.

In the case of `C=CS(=O)(=O)NCCC#Cc1cccc(Nc2nc(NC3CCOCC3)c(CC)nc2C(N)=O)c1` [Compound 12, 6-ethyl-5-((Tetrahydro-2H-pyran-4-yl)amino)-3-((3-(4-(vinylsulfonamido)but-1-yn-1-yl)phenyl)amino)pyrazine-2-carboxamide], the IC50 with MOLM-13 was more than 500 nM; with MV-4-11, 100 to 500 nM; in the assay with K-562, more than 500 nM.

As for `C=CC(=O)NCCCNc1cc(Nc2nc(NC3CCOCC3)c(CC)nc2C(N)=O)ccn1` [Compound 24, 3-((2-((3-Acrylamidopropyl)amino)pyridin-4-yl)amino)-6-ethyl-5-((tetrahydro-2H-pyran-4-yl)amino)pyrazine-2-carboxamide], the IC50 in the assay on MOLM-13 was 10 to 100 nM; in the assay with MV-4-11 it was 10 to 100 nM; with K-562, more than 500 nM.

As for `CCc1nc(C(N)=O)c(Nc2cc(CCNC(=O)[C@H](C)N(C)C(=O)/C=C/CN(C)C)cc(OC)c2)nc1NC1CCOCC1` [Compound 110, 3-[3-[2-[[(2S)-2-[[(E)-4-(dimethylamino)but-2-enoyl]-methyl-amino]propanoyl]amino]ethyl]-5-methoxy-anilino]-6-ethyl-5-(tetrahydropyran-4-ylamino)pyrazine-2-carboxamide], the IC50 in the assay with MOLM-13 was 1 to 10 nM; in the assay with MV-4-11, less than 1 nM; with K-562, more than 500 nM.

Regarding `CCc1nc(C(N)=O)c(Nc2cccc(OCCCNC(=O)[C@H](C)N(C)C(=O)/C=C/CN(C)C)c2)nc1N(C)CC` [Compound 146, (S,E)-3-((3-(3-(2-(4-(dimethylamino)-N-methylbut-2-enamido)propanamido)propoxy)phenyl)amino)-6-ethyl-5-(ethyl(methyl)amino)pyrazine-2-carboxamide], the IC50 in the assay on MOLM-13 is 1 to 10 nM; in the assay on MV-4-11 it was less than 1 nM; in the assay with K-562, more than 500 nM.

`CC#CC(=O)N(C)[C@@H](C)C(=O)NCCc1cccc(Nc2nc(C)c(CC)nc2C(N)=O)c1` [Compound 206, 3-[3-[2-[[(2S)-2-[but-2-ynoyl(methyl)amino]propanoyl]amino]ethyl]anilino]-6-ethyl-5-methyl-pyrazine-2-carboxamide]: the IC50 in the assay with MOLM-13 is more than 500 nM; with MV-4-11, 10 to 100 nM; in the assay with K-562, more than 500 nM.

For `C=CS(=O)(=O)N(C)[C@@H](C)C(=O)NCCNc1cc(Nc2nc(NC3CCOCC3)c(CC)nc2C(N)=O)ccn1` [Compound 41, 6-ethyl-3-[[2-[2-[[(2S)-2-[methyl(vinylsulfonyl)amino]propanoyl]amino]ethylamino]-4-pyridyl]amino]-5-(tetrahydropyran-4-ylamino)pyrazine-2-carboxamide], the IC50 with MOLM-13 is 10 to 100 nM; in the assay with MV-4-11 it was 10 to 100 nM; in the assay with K-562 it was more than 500 nM.

Turning to `CCc1nc(C(N)=O)c(Nc2cccc(CCNC(=O)[C@H](C)N(C)C(=O)/C=C/CN(C)C)c2)nc1NC1CCOCC1` [Compound 135, (S,E)-3-((3-(2-(2-(4-(dimethylamino)-N-methylbut-2-enamido)propanamido)ethyl)phenyl)amino)-6-ethyl-5-((tetrahydro-2H-pyran-4-yl)amino)pyrazine-2-carboxamide], the figures for the IC50 in the assay with MOLM-13, in the assay with MV-4-11 and in the assay with K-562 were less than 1 nM, less than 1 nM and more than 500 nM, respectively.

`CCc1nc(C(N)=O)c(Nc2cccc(CCNC(=O)[C@H](C)N(C)C(=O)/C=C/CNC)c2)nc1N(C)C(C)C` [Compound 307, (S,E)-6-ethyl-5-(isopropyl(methyl)amino)-3-((3-(2-(2-(N-methyl-4-(methylamino)but-2-enamido)propanamido)ethyl)phenyl)amino)pyrazine-2-carboxamide] came in with an IC50 in the assay on K-562 of more than 500 nM.

On to `CCc1nc(C(N)=O)c(Nc2cccc(OCCCNC(=O)[C@H](C)N(C)C(=O)/C=C/CN(C)C)c2)nc1N1CCCC1` [Compound 142, (S,E)-3-((3-(3-(2-(4-(dimethylamino)-N-methylbut-2-enamido)propanamido)propoxy)phenyl)amino)-6-ethyl-5-(pyrrolidin-1-yl)pyrazine-2-carboxamide], for which the IC50 in the assay with MOLM-13 was 1 to 10 nM; with MV-4-11, 1 to 10 nM; with K-562 it was more than 500 nM.

`CCc1nc(C(N)=O)c(Nc2cncc(CCNC(=O)[C@H](C)N(C)C(=O)/C=C/CN(C)C)c2)nc1C1CC1` [Compound 306, (S,E)-5-cyclopropyl-3-((5-(2-(2-(4-(dimethylamino)-N-methylbut-2-enamido)propanamido)ethyl)pyridin-3-yl)amino)-6-ethylpyrazine-2-carboxamide] yielded an IC50 in the assay on K-562 of more than 500 nM.

`Cc1cc(C(N)=O)c(Nc2cncc(CCNC(=O)[C@H](C)N(C)C(=O)/C=C/CN(C)C)c2)nc1C1CC1` [Compound 323, (S,E)-6-cyclopropyl-2-((5-(2-(2-(4-(dimethylamino)-N-methylbut-2 enamido)propanamido)ethyl)pyridin-3-yl)amino)-5-methylnicotinamide]: the concentration for half-maximal inhibition (IC50) in the assay with K-562 is more than 500 nM.

What is called IC50 is the concentration that gives 50% inhibition. Low values mean higher potency, high ones lower potency.
